Experimental data published in patent US10913733B2, “Substituted piperidines thiazolyl acetamides as glycosidase inhibitors and uses thereof” (priority 2015, dated 2021).
Where “and” joins values, the source holds several entries; their conditions need not be identical. Equal values may be shown once.

What follows are molecules tested against human O-GlcNAcase (Homo sapiens (Human), UniProt O60502) (assay: Assay for determination of KI values for inhibition of O-GlcNAcase activity). Settings: purified human O-GlcNAcase 0.7 nM; substrate 2 mM 4-Methylumbelliferyl N-acetyl-β-D-glucosaminide; pH 7.0; room temperature; Cheng-Prusoff; read-out: hOGA Ki.
human O-GlcNAcase, sequence (O60502 whole entry): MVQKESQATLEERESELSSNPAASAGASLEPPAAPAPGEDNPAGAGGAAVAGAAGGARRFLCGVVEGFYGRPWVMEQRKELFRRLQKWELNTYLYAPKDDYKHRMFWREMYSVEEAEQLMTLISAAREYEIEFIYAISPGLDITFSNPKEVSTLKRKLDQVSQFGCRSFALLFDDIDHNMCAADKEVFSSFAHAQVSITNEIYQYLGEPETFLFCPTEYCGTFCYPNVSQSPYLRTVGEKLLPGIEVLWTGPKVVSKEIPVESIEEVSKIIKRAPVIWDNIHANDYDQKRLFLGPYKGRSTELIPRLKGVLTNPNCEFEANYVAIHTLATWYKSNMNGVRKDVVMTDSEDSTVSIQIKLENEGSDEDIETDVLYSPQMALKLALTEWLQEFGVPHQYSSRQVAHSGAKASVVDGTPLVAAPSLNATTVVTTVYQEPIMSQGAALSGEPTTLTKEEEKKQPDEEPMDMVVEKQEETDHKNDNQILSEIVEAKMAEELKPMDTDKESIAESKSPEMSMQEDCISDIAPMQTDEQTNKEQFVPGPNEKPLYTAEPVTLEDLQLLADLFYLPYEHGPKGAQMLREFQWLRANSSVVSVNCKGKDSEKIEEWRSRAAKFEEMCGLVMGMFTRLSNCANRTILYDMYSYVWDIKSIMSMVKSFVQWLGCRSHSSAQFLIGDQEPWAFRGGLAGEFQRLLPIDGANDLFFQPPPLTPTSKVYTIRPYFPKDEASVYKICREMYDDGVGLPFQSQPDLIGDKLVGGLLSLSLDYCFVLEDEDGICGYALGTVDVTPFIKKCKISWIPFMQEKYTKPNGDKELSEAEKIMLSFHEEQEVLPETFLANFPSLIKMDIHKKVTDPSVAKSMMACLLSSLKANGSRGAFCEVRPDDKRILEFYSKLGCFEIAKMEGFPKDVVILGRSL
Type: biochemical
Method: Assay for Determination of KI Values for Inhibition of O-GlcNAcase Activity
Experimental procedure for kinetic analyses: Enzymatic reactions were carried out in a reaction containing 50 mM NaH2PO4, 100 mM NaCl and 0.1% BSA (pH 7.0) using 2 mM 4-Methylumbelliferyl N-acetyl-β-D-glucosaminide dihydrate (Sigma M2133) dissolved in ddH2O, as a substrate. The amount of purified human O-GlcNAcase enzyme used in the reaction was 0.7 nM. Test compound of varying concentrations was added to the enzyme prior to initiation of the reaction. The reaction was performed at room temperature in a 96-well plate and was initiated with the addition of substrate. The production of fluorescent product was measured every 60 sec for 45 min with a Tecan Infinite M200 plate-reader with excitation at 355 nm and emission detected at […], with 4-Methylumbelliferone (Sigma M1381) used to produce a standard curve. The slope of product production was determined for each concentration of compound tested and plotted, using standard curve fitting algorithms for sigmoidal dose response curves. The values for a four parameter logistic curve fit of the data were determined. KI values were determined using the Cheng-Prusoff equation; the Km of O-GlcNAcase for substrate was 0.2 mM.
`CC(=O)Nc1ncc(CN2CCC(=Cc3ccc4c(c3)OCO4)CC2)s1` [Example 19, N-(5-{[4-(1,3-benzodioxol-5-ylmethylidene)piperidin-1-yl]methyl}-1,3-thiazol-2-yl)acetamide] gave a Ki of 1.03 nM. Work on `CC(=O)Nc1ncc(CN2CCC(=Cc3ccc4c(c3)OCCO4)CC2)s1` [Example 20, N-(5-{[4-(2,3-dihydro-1,4-benzodioxin-6-ylmethylidene)piperidin-1-yl]methyl}-1,3-thiazol-2-yl)acetamide] yielded a Ki of 1.79 nM. Work on `CC(=O)Nc1ncc(CN2CCC(=Cc3ccc4c(c3)CNC4=O)CC2)s1` [Example 21, N-(5-((4-((1-oxoisoindolin-5-yl)methylene)piperidin-1-yl)methyl)thiazol-2-yl)acetamide] yielded a Ki of 0.268 nM. For `COc1cc(C=C2CCN(Cc3cnc(NC(C)=O)s3)CC2)ccc1O` [Example 22, N-[5-({4-[(4-hydroxy-3-methoxyphenyl)methylidene]piperidin-1-yl}methyl)-1,3-thiazol-2-yl]acetamide], the Ki was 0.634 nM. Work on `COc1ccc(C=C2CCN(Cc3cnc(NC(C)=O)s3)CC2)cc1O` [Example 23, N-[5-({4-[(3-hydroxy-4-methoxyphenyl)methylidene]piperidin-1-yl}methyl)-1,3-thiazol-2-yl]acetamide] yielded a Ki of 1.51 nM. `COC(=O)c1ccc(C=C2CCN(Cc3cnc(NC(C)=O)s3)CC2)cc1` [Example 24, methyl 4-((1-((2-acetamidothiazol-5-yl)methyl)piperidin-4-ylidene)methyl)benzoate] showed a Ki of 1.37 nM. In the case of `CC(=O)Nc1ncc(CN2CCC(=Cc3ccc(CF)cc3)CC2)s1` [Example 26, N-(5-((4-(4-(fluoromethyl)benzylidene)piperidin-1-yl)methyl)thiazol-2-yl)acetamide], the Ki is reported as 0.167 nM and 0.0753 nM. `CC(=O)Nc1ncc(CN2CCC(=Cc3ccc(CCF)cc3)CC2)s1` [Example 27, N-(5-((4-(4-(2-fluoroethyl)-benzylidene)piperidin-1-yl)methyl)thiazol-2-yl)acetamide] showed a Ki of 0.411 nM. `CC(=O)N(C)c1ncc(CN2CCC(=Cc3ccc(CCF)cc3)CC2)s1` [Example 28, N-(5-((4-(4-(2-fluoroethyl)benzylidene)-piperidin-1-yl)methyl)thiazol-2-yl)-N-methylacetamide] showed a Ki of 5.71 nM. `CC(=O)Nc1ncc(CN2CCC(=Cc3ccc(C(=O)O)cc3)CC2)s1` [Example 29, 4-[(1-{[2-(acetylamino)-1,3-thiazol-5-yl]methyl}piperidin-4-ylidene)methyl]benzoic acid] showed a Ki of 0.324 nM. Molecule `CNC(=O)c1ccc(C=C2CCN(Cc3cnc(NC(C)=O)s3)CC2)cc1` [Example 30, 4-[(1-{[2-(acetylamino)-1,3-thiazol-5-yl]methyl}piperidin-4-ylidene)methyl]-N-methylbenzamide] has a Ki of 0.43 nM. `CC(=O)Nc1ncc(CN2CCC(=Cc3ccc(C(=O)N(C)C)cc3)CC2)s1` [Example 31, 4-((1-((2-acetamidothiazol-5-yl)methyl)piperidin-4-ylidene)methyl)-N,N-dimethylbenzamide] was tested, and the Ki was 0.117 nM. For `CC(=O)Nc1ncc(CN2CCC(=Cc3ccc(F)cc3)CC2)s1` [Example 32, N-[5-({4-[(4-fluorophenyl)methylidene]piperidin-1-yl}methyl)-1,3-thiazol-2-yl]acetamide], the Ki was 2.7 nM. Molecule `CC(=O)Nc1ncc(CN2CCC(=Cc3ccccc3)CC2)s1` [Example 33, N-(5-{[4-(phenyl-methylidene)piperidin-1-yl]methyl}-1,3-thiazol-2-yl)acetamide] has a Ki of 1.75 nM. `CC(=O)Nc1ncc(CN2CC/C(=C/c3ccccc3)C[C@@H]2C)s1` [Example 34, (S,Z)-N-(5-{(4-benzylidene-2-methylpiperidin-1-yl)methyl)thiazol-2-yl)acetamide] showed a Ki of 1.04 nM. `CC(=O)Nc1ncc(CN2CC/C(=C/c3ccccc3)C[C@H]2C)s1` [Example 35, (R,Z)-N-(5-((4-benzylidene-2-methylpiperidin-1-yl)methyl)thiazol-2-yl)acetamide] was tested, and the Ki was 56.6 nM. With `CC(=O)Nc1ncc(CN2CC/C(=C\c3ccccc3)C[C@H]2C)s1` [Example 36, (R,E)-N-(5-((4-benzylidene-2-methylpiperidin-1-yl)methyl)thiazol-2-yl)acetamide] the Ki was 412 nM. `CC(=O)Nc1ncc(CN2CC/C(=C\c3ccccc3)C[C@@H]2C)s1` [Example 37, (S,E)-N-(5-((4-benzylidene-2-methylpiperidin-1-yl)methyl)thiazol-2-yl)acetamide] showed a Ki of 29.8 nM. `COc1ccc(/C=C2/CCN(Cc3cnc(NC(C)=O)s3)[C@@H](C)C2)cc1` [Example 38, (S,Z)-N-(5-((4-(4-methoxybenzylidene)-2-methylpiperidin-1-yl)methyl)thiazol-2-yl)acetamide] gave a Ki of 0.287 nM. `COc1ccc(/C=C2\CCN(Cc3cnc(NC(C)=O)s3)[C@H](C)C2)cc1` [Example 39, (R,E)-N-(5-((4-(4-methoxybenzylidene)-2-methylpiperidin-1-yl)methyl)thiazol-2-yl)acetamide] gave a Ki of 126 nM. `COc1ccc(/C=C2/CCN(Cc3cnc(NC(C)=O)s3)[C@H](C)C2)cc1` [Example 40, (R,Z)-N-(5-((4-(4-methoxybenzylidene)-2-methylpiperidin-1-yl)methyl)thiazol-2-yl)acetamide] gave a Ki of 71.2 nM. `COc1ccc(/C=C2\CCN(Cc3cnc(NC(C)=O)s3)[C@@H](C)C2)cc1` [Example 41, (S,E)-N-(5-((4-(4-methoxybenzylidene)-2-methylpiperidin-1-yl)methyl)thiazol-2-yl)acetamide] was tested, and the Ki was 9.61 nM. Work on `CC(=O)Nc1ncc(CN2CCC(=Cc3ccc(OCCF)cc3)CC2)s1` [Example 42, N-{5-[(4-{[4-(2-fluoroethoxy)phenyl]methylidene}piperidin-1-yl)methyl]-1,3-thiazol-2-yl}acetamide] yielded a Ki of 0.625 nM. Work on `COc1cccc(C=C2CCN(Cc3cnc(NC(C)=O)s3)CC2)c1` [Example 43, N-(5-((4-(3-methoxybenzylidene)piperidin-1-yl)methyl)thiazol-2-yl)acetamide] yielded a Ki of 2.93 nM. Molecule `CC(=O)Nc1ncc(CN2CCC(=Cc3cccc(O)c3)CC2)s1` [Example 44, N-(5-((4-(3-hydroxybenzylidene)piperidin-1-yl)methyl)thiazol-2-yl)acetamide] has a Ki of 1.13 nM. Work on `C=CCOc1ccc(C=C2CCN(Cc3cnc(NC(C)=O)s3)CC2)cc1` [Example 45, N-{5-[(4-{[4-(prop-2-en-1-yloxy)phenyl]methylidene}piperidin-1-yl)methyl]-1,3-thiazol-2-yl}acetamide] yielded a Ki of 6.11 nM. With `COc1ccc(C=C2CCN(Cc3cnc(NC(C)=O)s3)CC2)cc1` [Example 46, N-[5-({4-[(4-methoxyphenyl)methylidene]piperidin-1-yl}methyl)-1,3-thiazol-2-yl]acetamide] the Ki was 2 nM. In the case of `COc1ccccc1C=C1CCN(Cc2cnc(NC(C)=O)s2)CC1` [Example 47, N-(5-((4-(2-methoxybenzylidene)piperidin-1-yl)methyl)thiazol-2-yl)acetamide], the Ki is reported as 2.45 nM. With `CC(=O)Nc1ncc(CN2CCC(=Cc3ccc(-c4ccccc4)cc3)CC2)s1` [Example 48, N-(5-((4-([1,1′-biphenyl]-4-ylmethylene)piperidin-1-yl)methyl)thiazol-2-yl)acetamide] the Ki was 53.8 nM. In the case of `CC(=O)Nc1ncc(CN2CCC(=Cc3ccc([N+](=O)[O-])nc3)CC2)s1` [Example 49], the Ki is reported as 1.6 nM. In the case of `CC(=O)Nc1ncc(CN2CCC(=Cc3ccc(CCO)cc3)CC2)s1` [Example 50, N-(5-((4-(4-(2-hydroxyethyl)benzylidene)piperidin-1-yl)methyl)thiazol-2-yl)acetamide], the Ki is reported as 0.241 nM. With `CC(=O)Nc1ncc(CN2CC/C(=C/c3ccc(F)nc3)C[C@H]2C)s1` [Example 51, (R,Z)—N-(5-((4-((6-fluoropyridin-3-yl)methylene)-2-methylpiperidin-1-yl)methyl)thiazol-2-yl)acetamide] the Ki was 218 nM. `CC(=O)Nc1ncc(CN2CC/C(=C/c3ccc(F)nc3)C[C@@H]2C)s1` [Example 52, (S,Z)—N-(5-((4-((6-fluoropyridin-3-yl)methylene)-2-methylpiperidin-1-yl)methyl)thiazol-2-yl)acetamide] showed a Ki of 0.389 nM. `CC(=O)Nc1ncc(CN2CC/C(=C\c3ccc(F)nc3)C[C@H]2C)s1` [Example 53, (R,E)-N-(5-((4-((6-fluoropyridin-3-yl)methylene)-2-methylpiperidin-1-yl)methyl)thiazol-2-yl)acetamide] gave a Ki of 123 nM. Work on `CC(=O)Nc1ncc(CN2CC/C(=C\c3ccc(F)nc3)C[C@@H]2C)s1` [Example 54, (S,E)-N-(5-((4-((6-fluoropyridin-3-yl)methylene)-2-methylpiperidin-1-yl)methyl)thiazol-2-yl)acetamide] yielded a Ki of 11.8 nM.
